# Source: PMC9601927 (Foods, 2022)
# Entries after “also recorded” stand apart in the source; their conditions may differ.
# Legend:
# Caco-2 cells = type: cell-based; conditions: 2.3 × 10^−4 mg/mL ANC, 48 h
# Description: Due to cell membrane damage, the intracellular LDH was released into the culture medium. The LDH level was used as an indicator of irreversible cell death. The method used here was based on the spectrophotometric determination at 490 nm of NADH disappearance.
# Upon exposure to different concentrations of ANC, FA-g-CS, or their combinations, the culture medium was aspirated and centrifuged at 400× g for 5 min in tubes with a porous matrix to acquire a cell-free supernatant. A measure of 120 microliters of media was mixed with 60 μL of reagent in a 96-well plate, and the absorbance was recorded with PerkinElmer EnVision. The cytotoxicity of these substances was reflected using the following Equation (2):(2) LDH activity(mU/mL)=ODsample−ODblank/ODstandard−ODblank of standard×1000 mU/mL where ODsample, ODblank, ODstandard, and ODblank represent the measurements of the sample, the blank, the standard, and the blank of standard, respectively.
# [1] = ANC transmembrane transport across Caco-2 cell monolayer (Transwell, HPLC); type: in vitro ADME; conditions: human, Caco-2
# Description: (§1) In this work, we utilized and slightly modified a procedure from Zou et al. to perform ANC transport studies. Firstly, ANC commercial powder was pre-dissolved in ultra-pure water and phosphate-buffered solution (PBS, pH7.4) was used for FA-g-CS dissolving. Then, pre-warmed phosphate-buffered saline (PBS) was used to wash and equilibrate the Transwell. Subsequently, the transport buffer containing ANC was added to the basolateral (1.5 mL) or the apical (0.5 mL) side of the inserts, while the corresponding volume of transport buffer was added to the receiving container. Samples measuring 50 uL were taken after 1, 2, 3, and 4 h incubation, and the same amount of pre-warmed PBS was replenished immediately. The samples were treated with HCl and frozen until HPLC analysis. The ANC-absorption-enhancing studies with FA-g-CS across Caco-2 cells were conducted using a transport buffer containing FA-g-CS+ANC instead of ANC alone.
# (§2) Transport efficiency (A→B (%)) was calculated according to the following formula: (concentrations of the compound at basolateral side overtime)/(concentrations of the compound at the apical side at zero hours) × 100. The apparent permeability coefficient (Papp) was defined as follows: Papp = (dQ/dt)(1/[AC0]); here, A represents the surface area of the Transwell, C0 represents the compound concentration added in the apical side, and the transport rate of the compound over time is denoted by dQ/dt.
# Caco-2 cell monolayer = assay: as above; type: in vitro ADME; conditions: for Transport Efficiency A→B (%) with FA-g-CS Co-Treatment: with 5 × 10^−5 mg/mL FA-g-CS; for Concentrations of ANC at the Basolateral Side: apical ANC 0.05 ×10^−3 mg/mL
# Description: as §1, §2
smiles,measurement,setting,value
"OC[C@H]1O[C@@H](Oc2cc3c(O)cc(O)cc3[o+]c2-c2ccc(O)c(O)c2)[C@H](O)[C@@H](O)[C@@H]1O [ANC, Cyanidin-3-glucoside]",cell cytotoxicity (LDH assay),Caco-2 cells,negligible increase; also recorded: not toxic
same,"Papp A→B at 4 h, 0.05 ×10^−3 mg/mL","[1]; ANC 0.05 ×10^−3 mg/mL, 4 h",0.491 ± 0.058 ×10⁻⁶ cm/s
same,"Papp B→A at 4 h, 0.05 ×10^−3 mg/mL","[1]; ANC 0.05 ×10^−3 mg/mL, 4 h",0.378 ± 0.048 ×10⁻⁶ cm/s
same,"efflux ratio at 4 h, 0.05 ×10^−3 mg/mL","[1]; ANC 0.05 ×10^−3 mg/mL, 4 h, read-out: Papp (B→A)/ Papp (A→B)",0.77
same,"Papp A→B at 4 h, 0.1 ×10^−3 mg/mL","[1]; ANC 0.10 ×10^−3 mg/mL, 4 h",0.961 ± 0.048 ×10⁻⁶ cm/s
same,"Papp B→A at 4 h, 0.1 ×10^−3 mg/mL","[1]; ANC 0.10 ×10^−3 mg/mL, 4 h",0.719 ± 0.098 ×10⁻⁶ cm/s
same,"efflux ratio at 4 h, 0.1 ×10^−3 mg/mL","[1]; ANC 0.10 ×10^−3 mg/mL, 4 h, read-out: Papp (B→A)/ Papp (A→B)",0.75
same,"Papp A→B at 4 h, 0.15 ×10^−3 mg/mL","[1]; ANC 0.15 ×10^−3 mg/mL, 4 h",1.5 ± 0.523 ×10⁻⁶ cm/s
same,"Papp B→A at 4 h, 0.15 ×10^−3 mg/mL","[1]; ANC 0.15 ×10^−3 mg/mL, 4 h",1.94 ± 0.908 ×10⁻⁶ cm/s
same,"efflux ratio at 4 h, 0.15 ×10^−3 mg/mL","[1]; ANC 0.15 ×10^−3 mg/mL, 4 h, read-out: Papp (B→A)/ Papp (A→B)",1.29
same,"Papp A→B at 4 h, 0.2 ×10^−3 mg/mL","[1]; ANC 0.20 ×10^−3 mg/mL, 4 h",1.12 ± 0.108 ×10⁻⁶ cm/s
same,"Papp B→A at 4 h, 0.2 ×10^−3 mg/mL","[1]; ANC 0.20 ×10^−3 mg/mL, 4 h",1.48 ± 0.048 ×10⁻⁶ cm/s
same,"efflux ratio at 4 h, 0.2 ×10^−3 mg/mL","[1]; ANC 0.20 ×10^−3 mg/mL, 4 h, read-out: Papp (B→A)/ Papp (A→B)",1.32
same,Papp at 4 h,"[1]; ANC alone, overall statement",< 1 ×10⁻⁶ cm/s
same,Transport Efficiency A→B (%) with FA-g-CS Co-Treatment,"Caco-2 cell monolayer; ANC 0.05 ×10^−3 mg/mL, 4 h",1%
same,Transport Efficiency A→B (%) without FA-g-CS,"Caco-2 cell monolayer; ANC 0.05 ×10^−3 mg/mL, 4 h",0.81%
same,Transport Efficiency A→B (%) with FA-g-CS Co-Treatment,"Caco-2 cell monolayer; ANC 0.10 ×10^−3 mg/mL, 4 h",2.1%
same,Transport Efficiency A→B (%) without FA-g-CS,"Caco-2 cell monolayer; ANC 0.10 ×10^−3 mg/mL, 4 h",1.15%
same,Transport Efficiency A→B (%) with FA-g-CS Co-Treatment,"Caco-2 cell monolayer; ANC 0.15 ×10^−3 mg/mL, 4 h",2.3%
same,Transport Efficiency A→B (%) without FA-g-CS,"Caco-2 cell monolayer; ANC 0.15 ×10^−3 mg/mL, 4 h",1.18%
same,Transport Efficiency A→B (%) with FA-g-CS Co-Treatment,"Caco-2 cell monolayer; ANC 0.20 ×10^−3 mg/mL, 4 h",1.65%
same,Transport Efficiency A→B (%) without FA-g-CS,"Caco-2 cell monolayer; ANC 0.20 ×10^−3 mg/mL, 4 h",0.96%
same,Concentrations of ANC at the Basolateral Side,"Caco-2 cell monolayer; in presence of 0.05 × 10^−3 mg/mL FA-g-CS, 1 h",0.0003 ± 0.00001 b ×10^−3 mg/mL
same,Concentrations of ANC at the Basolateral Side,"Caco-2 cell monolayer; in presence of 0.05 × 10^−3 mg/mL FA-g-CS, 2 h",0.0004 ± 0.00001 c ×10^−3 mg/mL
same,Concentrations of ANC at the Basolateral Side,"Caco-2 cell monolayer; in presence of 0.05 × 10^−3 mg/mL FA-g-CS, 3 h",0.0004 ± 0.00001 c ×10^−3 mg/mL
same,Concentrations of ANC at the Basolateral Side,"Caco-2 cell monolayer; in presence of 0.05 × 10^−3 mg/mL FA-g-CS, 4 h",0.0005 ± 0.00001 d ×10^−3 mg/mL
same,Concentrations of ANC at the Basolateral Side,"Caco-2 cell monolayer; without FA-g-CS co-treatment, 1 h",0.0001 ± 0.00001 a ×10^−3 mg/mL
same,Concentrations of ANC at the Basolateral Side,"Caco-2 cell monolayer; without FA-g-CS co-treatment, 2 h",0.0003 ± 0.00001 b ×10^−3 mg/mL
